Assay results from patent publication US8039439B2, “Cellular cycle anomalies for targeting oncology and neurodegeneration” (priority 2005, dated 2011).

Assays:
LIV21 = assay: Nuclear translocation of LIV21 in MCF-7 cells (Western blotting of extracts/fractions, immunocytochemistry); format: cell-based, human
Procedure: The results obtained by flow cytometry led the inventor to study, in parallel, the expression of LIV21 in nuclear extracts prepared after 12 h, 24 h, 48 h and 72 h of TPA treatment (FIG. 16A). […] It lasts until the reinitiation of the cell cycle observed at 72 h.
However, it is interesting to note that the expression of LIV21 already begins from 1 h of treatment in certain cells, since they are not synchronous.
The effect of the selective inhibition of the activity of PKC∈ on the nuclear translocation of LIV21 was studied by immunocytochemistry. These experiments were carried out on nontreated cultures or cultures treated for 12 h with TPA at 25 nM or with the peptide at two different concentrations, 1 and 2 μM (FIG. 20).
(§1) The protein extracts are heated at 80° C. for 5 minutes in a Laemmli buffer (pH 7.4, 0.06 M Tris, 3% SDS, 10% glycerol, 1 nM PMSF, β-mercaptoethanol). The migration is carried out by SDS-PAGE (sodium dodecyl sulfate-polyacrylamide gel electrophoresis). 10 to 20 μg of proteins migrate in a 12% polyacrylamide gel for 1 h under denaturing conditions (migration buffer: 25 mM Tris base, 192 mM glycine, 1% SDS, pH 8.3). The proteins are then transferred onto a nitrocellulose membrane (Schleicher & Schuell) for one hour by liquid transfer, in a transfer membrane (25 mM Tris, 192 mM glycine, 20% methanol, pH 8.3). The membranes, saturated in PBS-0.1% Tween-0.1% Triton X100-5% skimmed milk for one hour, are brought into contact with the primary antibody diluted in PBS-0.1% Tween-0.1% Triton X100-1% milk at ambient temperature with gentle agitation for one hour to two hours. After washing, the peroxidase-coupled secondary antibody is incubated with the membranes for 1 h. Revelation is carried out by means of a chemiluminescence reaction using the ECL kit according to the supplier's protocol (Amersham).

MCF-7 line = conditions: literature description; cited from earlier work
PKC∈ = PKC∈ expression in MCF-7 cells (Western blotting, immunofluorescence); format: cell-based, human; conditions: TPA 25 nM
Procedure: Western blotting study: Given that the protein sequence of LIV21 has putative PKC phosphorylation sites, including two specific for PKC∈, the inventor tested the variation in the expression of this PKC as a function of the duration of TPA treatment. […] The expression of PKCzeta (PKCζ) is used as an internal control since it is not sensitive to TPA.
as §1, with “Revelation is carried out by means of a chemiluminescence reaction using the ECL kit according to the supplier's protocol (Amersham).” left out

MCF-7 cells [1] = assay: FACS analysis of cell cycle phases in TPA-treated MCF-7 cells; format: cell-based, human
Procedure: However, without any further addition of TPA, the number of cells in the S phase increases again so as to return to the initial state at 72 h of treatment. G2/M phase: The number of cells in the G2/M phase increases from the beginning of the treatment, with a maximum observed at 12 hours (FIG. 15B). G0/G1 phase: The number of cells in the G0/G1 phase is at a minimum at 6 hours and at a maximum at 24 hours (FIG. 15C).
A maximum of cells in the S phase are therefore observed in the early periods of the kinetics (0 h to 6 h), a maximum of cells in the G2/M phase is observed at 12 h and, finally, a maximum of cells in the G0/G1 phase is observed at 24 h. Finally, without any further addition of TPA, the cells return to the S phase at 72 h.

MCF-7 cells [2] = assay: Cell growth monitoring (counting) and morphology of MCF-7 cultures with or without TPA; format: cell-based, human; conditions: TPA 25 nM
Procedure: It has been described in the literature that TPA induces the arrest of proliferation and the differentiation of tumor cells of the MCF-7 line. In order to validate the culture conditions, the cell growth was monitored (by counting) beforehand over three days of culture in the presence or absence of TPA at a concentration of 25 nM (FIG. 14).
However, in the period of time over which the cells were studied, the secretory phenotype (appearance of granules and of secretory canaliculi) was not observed.

Compound	nuclear translocation of LIV21 (immunocytochemistry) (LIV21; peptide 1 μM, 12 h)	nuclear translocation of LIV21 (immunocytochemistry) (LIV21; peptide 2 μM, 12 h, compared with TPA 25 nM)	nuclear translocation of LIV21 (immunocytochemistry) (LIV21; peptide 2 μM, 12 h, compared with TPA 25 nM, listed as PKCε-inhibiting peptide)	LIV21 expression profile in cytoplasmic and nuclear fractions (cell fractionation, Western blot) (LIV21; peptide 2 μM, 12 h, compared with TPA-treated cultures)	proliferation of cells of human mammary tumor lines such as MCF-7 (MCF-7 line)	colocalization of PML and LIV21 (double labeling) (LIV21; 24 h of TPA treatment (25 nM))	time of maximum nuclear translocation of LIV21 (immunocytochemistry) (LIV21; TPA 25 nM) [h]	anti-LIV21 immunoreactivity in nuclear extracts (Western blot) (LIV21; TPA 25 nM, 12 h, 24 h, 48 h and 72 h)	PKC∈ localization (immunofluorescence) (PKC∈; 12 h)	PKC∈ expression (Western blotting, total extracts) (PKC∈; as a function of duration of treatment)	time of optimal reduction of the number of cells in the S phase (MCF-7 cells [1]; TPA 25 nM, single addition) [h]	time of maximum number of cells in the G0/G1 phase (MCF-7 cells [1]; TPA treatment) [h]	time of maximum number of cells in the G2/M phase (MCF-7 cells [1]; TPA treatment) [h]	time of minimum number of cells in the G0/G1 phase (MCF-7 cells [1]; TPA treatment) [h]	time at which cells reinitiate the cell cycle (MCF-7 cells [1]; after single addition of TPA) [h]	cell morphology / differentiation (MCF-7 cells [2])	number of cells in control cultures relative to treated cultures (MCF-7 cells [2]; after 3 days of treatment)	cell proliferation (cell counts) (MCF-7 cells [2]; three days of culture)
EAVSLKPT (listed as Homo sapiens) [PKC∈-inhibiting peptide]	absence of nuclear translocation of LIV21	effect identical to that of TPA	same effectiveness as	same LIV21 expression profile														
CCCCCCCCCCCCCC(=O)O[C@@H]1[C@@H](C)[C@@]2(O)[C@@H](C=C(CO)C[C@]3(O)C(=O)C(C)=C[C@@H]23)[C@H]2C(C)(C)[C@]12OC(C)=O [TPA]					drastically inhibits the proliferation	colocalized in the nuclei	12	maximum anti-LIV21 immunoreactivity was observed from 12 h, was maintained up to 48 h	disappears from the cytoplasm	decreases from 30 min	12	24	12	6	72	rapidly acquire characteristics of differentiated mammary gland cells	twice as many cells	clearly inhibits proliferation
